Earlier results on one compound are cited in patent publication US20130273137A1, “DRUG DELIVERY COATING AND DEVICES” (MASSACHUSETTS EYE & EAR INFIRMARY, priority 2010, published 2013).

This data set has as its system S. aureus. Particulars: native MIC.

As to `CN[C@H](CC(C)C)C(=O)N[C@H]1C(=O)N[C@@H](CC(N)=O)C(=O)N[C@H]2C(=O)N[C@H]3C(=O)N[C@H](C(=O)N[C@H](C(=O)O)c4cc(O)cc(O)c4-c4cc3ccc4O)[C@H](O)c3ccc(c(Cl)c3)Oc3cc2cc(c3O[C@@H]2O[C@H](CO)[C@@H](O)[C@H](O)[C@H]2O[C@H]2C[C@](C)(N)[C@H](O)[C@H](C)O2)Oc2ccc(cc2Cl)[C@H]1O` [vancomycin], the “minimum inhibitory concentration of vancomycin against S. aureus” value is 0.5 to 2 mg/L.
